# Biological target: T1, Substance-K receptor (Homo sapiens, UniProt P21452)
# T1 sequence (P21452 whole entry): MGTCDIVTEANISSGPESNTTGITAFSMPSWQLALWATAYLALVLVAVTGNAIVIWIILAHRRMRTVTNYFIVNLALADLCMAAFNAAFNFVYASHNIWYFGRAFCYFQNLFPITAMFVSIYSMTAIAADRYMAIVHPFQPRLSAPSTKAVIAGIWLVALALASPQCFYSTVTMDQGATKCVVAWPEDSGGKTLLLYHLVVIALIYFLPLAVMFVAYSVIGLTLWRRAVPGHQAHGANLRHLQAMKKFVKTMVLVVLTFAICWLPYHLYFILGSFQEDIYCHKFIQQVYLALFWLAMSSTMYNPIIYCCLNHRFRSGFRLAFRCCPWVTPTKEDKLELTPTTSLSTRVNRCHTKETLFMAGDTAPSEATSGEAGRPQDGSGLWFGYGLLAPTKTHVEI
# Assay: Displacement of [125I]NKA from human Tachykinin receptor 2 expressed in CHO cells
# Type: cell-based
row,Ki [µM],SMILES
1,5.01,O=C(C1=C(c2ccccc2)OC2OC(COCc3ccccc3)C(OCc3ccccc3)C(OCc3ccccc3)C2S1(=O)=O)c1ccccc1 (stereo not given)
2,> 10,CC1=C(C(=O)Oc2ccccc2)SC2C(O1)OC(COCc1ccccc1)C(OCc1ccccc1)C2OCc1ccccc1 (stereo not given)
3,0.79,CCOC(=O)C1=C(C)OC2OC(COCc3ccccc3)C(OCc3ccccc3)C(O)C2[S+]1[O-] (stereo not given)
4,0.4,CC1=C(C(=O)Oc2ccccc2)[S+]([O-])C2C(O1)OC(COCc1ccccc1)C(OCc1ccccc1)C2OCc1ccccc1 (stereo not given)
5,4,CCOC(=O)C1=C(C)OC2OC(CO)C(OCc3ccccc3)C(OCc3ccccc3)C2S1 (stereo not given)
6,12.6,CCOC(=O)C1=C(C)OC2OC(COCc3ccccc3)C(OCc3ccccc3)C(O)C2S1 (stereo not given)
7,> 10,O=C(C1=C(c2ccccc2)OC2OC(COCc3ccccc3)C(OCc3ccccc3)C(OCc3ccccc3)C2S1)c1ccccc1 (stereo not given)

# More lines, now with the values behind:
row,SMILES,Ki [µM]
1,CCOC(=O)C1=C(C)OC2OC(COCc3ccccc3)C(OCc3ccccc3)C(OCc3ccccc3)C2S1 (stereo not given),12.6
2,CCOC(=O)C1=C(C)OC2OC(CO)C(OCc3ccccc3)C(OCc3ccccc3)C2[S+]1[O-] (stereo not given),4
3,CCOC(=O)C1=C(C)OC2OC(COCc3ccccc3)C(O)C(OCc3ccccc3)C2[S+]1[O-] (stereo not given),> 10
4,CCOC(=O)C1=C(C)OC2OC(CO)C(OCc3ccccc3)C(O)C2[S+]1[O-] (stereo not given),> 10
5,O=C(C1=C(c2ccccc2)OC2OC(COCc3ccccc3)C(OCc3ccccc3)C(OCc3ccccc3)C2[S+]1[O-])c1ccccc1 (stereo not given),0.79
6,CCOC(=O)C1=C(C)OC2OC(COCc3ccccc3)C(OCc3ccccc3)C(OCc3ccccc3)C2[S+]1[O-] (stereo not given),0.25
7,CCOC(=O)C1=C(C)OC2OC(CO)C(OCc3ccccc3)C(O)C2S1 (stereo not given),> 10

# Species: Oryctolagus cuniculus
# Assay: Antagonist activity on isolated endothelium-deprived rabbit pulmonary artery preparations when evaluated against a contractile concentration response curve to NKA
# Type: functional
row,SMILES,pKB
1,CCOC(=O)C1=C(C)OC2OC(COCc3ccccc3)C(OCc3ccccc3)C(OCc3ccccc3)C2[S+]1[O-] (stereo not given),6

# From ChEMBL document CHEMBL1134877, “Design, synthesis and biological activity of carbohydrate-containing peptidomimetics as new ligands for the human tachykinin NK-2 receptor” (Bioorg Med Chem Lett, 2002)
